± gives the standard deviation of the averaged measurements.
Key:
CRIZOTINIB = compound: C[C@@H](Oc1cc(-c2cnn(C3CCNCC3)c2)cnc1N)c1c(Cl)ccc(F)c1Cl [CRIZOTINIB]; experiment: surviving fraction relative to DMSO-only wells; higher = less growth inhibition; conditions: exposure time: 5 days
Summary of the method: (§1)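 Log-phase tumour cell lines were seeded at 250–500 cells per well in 384-well plates. After 24 hours they were exposed continuously for five days to inhibitors at 0.5, 1, 5, 10, 50, 100, 500 and 1000 nM. Viability was read by CellTiter-Glo luminescence after 10 minutes at room temperature, and surviving fraction is luminescence normalised to the median of DMSO-only wells. Each line was screened three times and kept only if replicate Pearson r >0.7 and median Z' >0.3.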

ABIRATERONE = compound: C[C@]12CC[C@H](O)CC1=CC[C@@H]1[C@@H]2CC[C@]2(C)C(c3cccnc3)=CC[C@@H]12 [ABIRATERONE]; experiment: as above; conditions: exposure time: 5 days
Summary of the method: as §1

Test System	surviving fraction (CRIZOTINIB; 0.5 nM)	surviving fraction (CRIZOTINIB; 1 nM)	surviving fraction (CRIZOTINIB; 5 nM)	surviving fraction (CRIZOTINIB; 10 nM)	surviving fraction (CRIZOTINIB; 50 nM)	surviving fraction (CRIZOTINIB; 500 nM)	surviving fraction (CRIZOTINIB; 1000 nM)	surviving fraction (ABIRATERONE; 0.5 nM)	surviving fraction (ABIRATERONE; 1 nM)	surviving fraction (ABIRATERONE; 5 nM)	surviving fraction (ABIRATERONE; 10 nM)	surviving fraction (ABIRATERONE; 50 nM)	surviving fraction (ABIRATERONE; 100 nM)	surviving fraction (ABIRATERONE; 500 nM)	surviving fraction (ABIRATERONE; 1000 nM)	surviving fraction (CRIZOTINIB; 100 nM)
MFM223 BREAST	1.21 ± 0.058	1.2 ± 0.019	1.21 ± 0.058	1.11 ± 0.033	1.07 ± 0.058	1.07 ± 0.011	1.084 ± 0.0027	1.19 ± 0.033	1.1 ± 0.08	1.17 ± 0.031	1.14 ± 0.099	1.22 ± 0.029	1.22 ± 0.015	1.2 ± 0.1	1.1 ± 0.1	
MG63 BONE	1.05 ± 0.04	1.07 ± 0.053		1.11 ± 0.043	1.07 ± 0.051	0.827 ± 0.034	0.743 ± 0.031	1.09 ± 0.022	1.06 ± 0.038	1.11 ± 0.057	1.09 ± 0.042	1.09 ± 0.021	1.07 ± 0.045	1.05 ± 0.041	1.03 ± 0.017	1 ± 0.052
MHM BONE	1.03 ± 0.037	1.02 ± 0.034	1.09 ± 0.053	1.1 ± 0.047	1.07 ± 0.02	0.96 ± 0.011	0.884 ± 0.031	1.03 ± 0.038	1.005 ± 0.0032	1.03 ± 0.027	1.05 ± 0.02	1.07 ± 0.024	1.05 ± 0.015	1.03 ± 0.018	1.05 ± 0.034	1.05 ± 0.021
NCIH441 LUNG	1.23 ± 0.069	1.2 ± 0.067	1.09 ± 0.038	1.12 ± 0.043	1.04 ± 0.045	1.02 ± 0.058	0.83 ± 0.16	1.04 ± 0.067	1.02 ± 0.12	1.08 ± 0.14	1.01 ± 0.077	1.1 ± 0.065	1.05 ± 0.11	1.01 ± 0.046	0.948 ± 0.051	0.967 ± 0.089
NOS1 BONE	1.03 ± 0.12	1.13 ± 0.07	1.11 ± 0.044	1.23 ± 0.2	1.11 ± 0.043	0.69 ± 0.036	0.484 ± 0.051	1.27 ± 0.16	1.05 ± 0.044	1.23 ± 0.089	1.22 ± 0.099	1.19 ± 0.15	1.24 ± 0.17	1.2 ± 0.095	0.999 ± 0.04	1.69 ± 0.86
NY BONE	1.07 ± 0.052	1.06 ± 0.047	1.12 ± 0.041	1.09 ± 0.038	1.08 ± 0.035	0.883 ± 0.026	0.577 ± 0.018	1.05 ± 0.021	1.06 ± 0.029	1.08 ± 0.034	1.1 ± 0.059	1.105 ± 0.011	1.09 ± 0.032	1.08 ± 0.027	1.06 ± 0.028	1.02 ± 0.021
OS25HAL BONE	1.06 ± 0.031	1.01 ± 0.028				0.929 ± 0.098	0.326 ± 0.016	1.02 ± 0.02	1.01 ± 0.011	1.039 ± 0.0055	0.989 ± 0.021	1.106 ± 0.0096	1.08 ± 0.017	1.07 ± 0.053	1.07 ± 0.034	
OSHN BONE	1.11 ± 0.026	1.12 ± 0.035	1.12 ± 0.032	1.14 ± 0.027	1.12 ± 0.081	1.08 ± 0.048	0.677 ± 0.067	1.13 ± 0.021	1.102 ± 0.009	1.12 ± 0.022	1.09 ± 0.029	1.13 ± 0.016	1.13 ± 0.031	1.11 ± 0.017	1.09 ± 0.024	1.14 ± 0.044
PCI30 HEADNECK	1.07 ± 0.075	1.12 ± 0.058	1.02 ± 0.028	1.1 ± 0.072	1.03 ± 0.024	0.759 ± 0.055	0.6787 ± 0.0025	1.12 ± 0.065	1.03 ± 0.091	1.11 ± 0.018	1.12 ± 0.068	1.18 ± 0.071	1.04 ± 0.013	1.04 ± 0.11	1.03 ± 0.065	
RDES SOFT TISSUE		1.24 ± 0.083		1.15 ± 0.11		1.44 ± 0.12	0.194 ± 0.047	1.19 ± 0.14	1.18 ± 0.12	1.21 ± 0.15	1.13 ± 0.11	1.2 ± 0.25	1.22 ± 0.25	1.28 ± 0.23	1.36 ± 0.27	1.16 ± 0.1
S68 BREAST	0.895 ± 0.078	1.16 ± 0.3	1.04 ± 0.55	0.981 ± 0.1	1.17 ± 0.26	0.417 ± 0.11	0.361 ± 0.049	0.939 ± 0.22	0.785 ± 0.063	1.21 ± 0.21	0.925 ± 0.098	1.17 ± 0.021	1.17 ± 0.092	0.942 ± 0.15	0.878 ± 0.17	
SAOS2 BONE	1.14 ± 0.063	1.12 ± 0.023	1.2 ± 0.044	1.23 ± 0.068	1.34 ± 0.14	0.541 ± 0.046	0.1927 ± 0.00058	1.1 ± 0.015	1.16 ± 0.11	1.23 ± 0.041	1.16 ± 0.018	1.183 ± 0.0029	1.24 ± 0.04	1.204 ± 0.012	1.1 ± 0.017	1.19 ± 0.1
SCC003 HEADNECK	1.07 ± 0.043		1.08 ± 0.13	1.06 ± 0.064	1.06 ± 0.045	0.929 ± 0.1	0.793 ± 0.044	1.15 ± 0.044	1.11 ± 0.14	1.09 ± 0.08	1.14 ± 0.065	1.27 ± 0.084	1.13 ± 0.088	1.19 ± 0.042	1.1 ± 0.034	1.09 ± 0.058
SCC36 HEADNECK	1.05 ± 0.11	1.06 ± 0.026	1.2 ± 0.088	1.24 ± 0.1	1.13 ± 0.17	0.552 ± 0.072	0.301 ± 0.025	1.04 ± 0.094	1.09 ± 0.022	1.24 ± 0.08	1.14 ± 0.072	1.15 ± 0.046	1.1 ± 0.15	1.02 ± 0.061	1.02 ± 0.034	1.07 ± 0.22
SCC47 HEADNECK	1.11 ± 0.056	1.08 ± 0.068	1.13 ± 0.048	1.16 ± 0.034	1.18 ± 0.018			1.18 ± 0.061	1.11 ± 0.027	1.17 ± 0.061	1.19 ± 0.1	1.22 ± 0.13	1.36 ± 0.098	1.25 ± 0.093	1.17 ± 0.077	1.15 ± 0.11
SCC90 HEADNECK	1.06 ± 0.036	0.972 ± 0.058	1.04 ± 0.087	1.1 ± 0.067	1.08 ± 0.0074	0.9977 ± 0.0097	0.762 ± 0.085	1.26 ± 0.13	1.09 ± 0.15	1.25 ± 0.14	1.23 ± 0.18	1.21 ± 0.04	1.28 ± 0.1	1.23 ± 0.11	1.17 ± 0.062	1.12 ± 0.066
SG27 HEADNECK	1.25 ± 0.084	1.09 ± 0.11		1.14 ± 0.022	1.12 ± 0.17	1.18 ± 0.13		1.09 ± 0.064	0.971 ± 0.11	1.05 ± 0.067	0.927 ± 0.039	0.867 ± 0.066	0.997 ± 0.08	0.957 ± 0.14	0.985 ± 0.07	1.11 ± 0.091
SG28 HEADNECK	1.06 ± 0.052	1.18 ± 0.1		1.22 ± 0.055	1.08 ± 0.025	1.044 ± 0.0092		1.11 ± 0.046	1.08 ± 0.11	1.02 ± 0.048	1.04 ± 0.12	1.02 ± 0.18	1.07 ± 0.043	1.01 ± 0.066	1.04 ± 0.13	1.15 ± 0.12
